Earlier results as cited in patent US7332525B2, “Method of treatment of prostate cancer and composition for treatment thereof” (priority 2003, dated 2008).

Tests used:
[1] = test system: metastasized prostate cancer; conditions: in vivo
[2] = test system: metastasized, hormone refractory prostate cancer; conditions: high doses of tamoxifen alone; patients with metastasized and hormone refractory prostate cancer

Row | SMILES | effect on the progression of metastasized prostate cancer [1] | effect on prostate cancer cells [2]
1 | CN(C)CCOc1ccc(C(=C(CCCl)c2ccccc2)c2ccccc2)cc1 [toremifene, 4-chloro-1,2-diphenyl-1-{4-[2-(N,N-dimethylamino)ethoxy]-phenyl}-1-butene] | some effect | 
2 | CC/C(=C(\c1ccccc1)c1ccc(OCCN(C)C)cc1)c1ccccc1.O=C(O)CC(O)(CC(=O)O)C(=O)O [tamoxifen, (Z)2-[4-(1,2-diphenyl-1-butenyl)phenoxy]-N, N-dimethylethanamine 2-hydroxy-1,2,3-propanetricarboxylate (1:1)] |  | some effect
3 | O=C(c1ccc(OCCN2CCCCC2)cc1)c1c(-c2ccc(O)cc2)sc2cc(O)ccc12 [raloxifene, 6-hydroxy-2(4-hydroxyphenyl)-3-[4-(2-piperdinoethoxy)benzoyl]benzo[b]thiophene] | some effect | 
